According to patent publication US20240002354A1, “ANTIDIABETIC COMPOUNDS AND COMPOSITIONS” (REZUBIO PHARMACEUTICALS CO., LTD, priority 2020, published 2024):

Target: T1, GPR40 (Homo sapiens, UniProt O14842)
T1 construct: expressed in transfected cells
Assay: IP1 accumulation assay (Cisbio IP-One HTRF) in HEK293 cells stably expressing GPR40
Type: cell-based
Settings: HEK293 cells stably expressing GPR40, 37° C. for 2 hours, % Effect relative to AMG-1638 positive control
Protocol: IP1 accumulation assay was used to evaluate the potency of compounds. HEK293 cells stably expressing GPR40 were cultured in 5% CO2 incubator (ThermoFisher) in maintenance media (Dulbecco's modified Eagle's medium with 4.5 g/L of glucose, 10% fetal bovine serum, 100 μg/mL Hygromycin, and Penicillin (100 U/mL)/Streptomycin (100 μg/mL)) till 100% confluency. Cells were harvested freshly, spun down at 300×g for 5 min, and resuspended in pre-warmed 1× stimulant buffer from Cisbio IP-One HTRF Detection kit (Cisbio). Cell density was adjusted to 2.0×10^6 cells/mL. DMSO was used as blank control and AMG-1638 (CAS #: 1142214-62-7) as positive control. Compounds were prepared at 10 mM in DMSO and 5 nL of 3× serially diluted compounds (10 concentrations) were added to each well of the 384-LDV assay plate (Corning) by using ECHO 550 (Labcyte). Five μL of cells in suspension were transferred into each well by using Multidrop Combi Reagent Dispenser (ThermoFisher). Assay plate was then sealed and incubated at 37° C. for 2 hours. IP-d2 reagent and anti-IP1 reagent were prepared following the manual (Cisbio). Five μL of IP1-d2 and then 5 μL of anti-IP1 antibody was added to each well sequentially. Assay plate was incubated at room temperature for 60 min and then read at 665 nm/615 nm on an Envision plate reader (PerkinElmer). The ratio of values obtained at 665 nm and 615 nm was used for calculation of IP1 accumulation: % Effect=(Ratiosample−Ratioblank)/(RatioAMG-1638−Ratioblank)×100. Dose curve was fitted and EC50 of each compound was calculated by using XLFit.

T1 sequence (O14842 whole entry): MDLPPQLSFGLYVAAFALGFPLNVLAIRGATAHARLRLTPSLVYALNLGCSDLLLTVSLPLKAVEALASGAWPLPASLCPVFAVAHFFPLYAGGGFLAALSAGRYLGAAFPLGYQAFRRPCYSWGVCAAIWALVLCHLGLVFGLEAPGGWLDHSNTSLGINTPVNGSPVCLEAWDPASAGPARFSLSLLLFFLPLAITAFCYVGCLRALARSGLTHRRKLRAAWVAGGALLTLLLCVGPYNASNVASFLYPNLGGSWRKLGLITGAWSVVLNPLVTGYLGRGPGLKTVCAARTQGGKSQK

Compound	EC50 [nM]
COc1ccc(F)c(-c2ccc(COc3cccc([C@@H](CC(=O)O)C4CC4)c3)cc2C(C)(C)Cn2cc(CCCCCCCCCCCCCCCCCC(=O)O)nn2)c1 [Compound No. 226, (S)-18-(1-(2-(4-((3-(2-carboxy-1-cyclopropylethyl)phenoxy)methyl)-2′-fluoro-5′-methoxy-[1,1′-biphenyl]-2-yl)-2-methylpropyl)-1H-1,2,3-triazol-4-yl)octadecanoic acid]	50 to 250
COc1ccc(F)c(-c2ccc(COc3cccc([C@@H](CC(=O)O)C4CC4)c3)cc2CC(C)(C)CN=[N+]=[N-])c1 [Compound No. 237, (S)-3-(3-((2-(3-azido-2,2-dimethylpropyl)-2′-fluoro-5′-methoxy-[1,1′-biphenyl]-4-yl)methoxy)phenyl)-3-cyclopropylpropanoic acid]	1 to 50
COc1ccc(F)c(-c2ccc(COc3cccc([C@@H](CC(=O)O)C4CC4)c3)cc2C(OCCCCCn2cc(CCCCCCCCCCCCCCCCCC(=O)O)nn2)C(C)(C)C)c1 (stereo partly drawn) [Compound No. 234]	250 to 1000
CCCCCCn1cc(C(C)(C)c2cc(COc3cccc([C@@H](CC(=O)O)C4CC4)c3)ccc2-c2cc(OC)ccc2F)nn1 [Compound No. 219, (S)-3-cyclopropyl-3-(3-{2′-fluoro-2-[1-(1-hexyl-1H-[1,2,3]triazol-4-yl)-1-methyl-ethyl]-5′-methoxy-biphenyl-4-ylmethoxy}-phenyl)-propionic acid]	250 to 1000
COC(=O)CCCCCCCCCCCCCCCCCc1cn(CC(C)(C)c2cc(COc3cccc([C@@H](CC(=O)O)C4CC4)c3)ccc2-c2cc(OC)ccc2F)nn1 [Compound No. 227, (S)-3-cyclopropyl-3-(3-((2′-fluoro-5′-methoxy-2-(1-(4-(18-methoxy-18-oxooctadecyl)-1H-1,2,3-triazol-1-yl)-2-methylpropan-2-yl)-[1,1′-biphenyl]-4-yl)methoxy)phenyl)propanoic acid]	≥ 5000
C#CCOc1cc(COc2cccc([C@H](CC)CC(=O)O)c2)ccc1-c1cc(OC)ccc1F [Compound No. 211]	1000 to 5000
(2S,2'S,3R,3′R)-3,3′-((2R,2′R)-2,2′-(1,1′-(((1,1′-(26-(2-(bis(3-((2-aminoethyl)amino)-3-oxopropyl)amino) ethyl)-18,23,29,34-tetraoxo-19,22,26,30,33-pentaazahenpentacontane-1,51-diyl)bis(1H-1,2,3-triazole-4,1-diyl))bis(2-(trifluoromethoxy)-5,1-phenylene))bis(methylene))bis (piperidine-4,1-diyl))bis(chroman-7,2-diyl))bis(3-cyclopropyl-2-methylpropanoic acid) [compound 203]	50 to 250
CCCCCCc1cn(CCc2ccc(OC(F)(F)F)c(CN3CCC([C@H]4CCc5ccc([C@H](C6CC6)[C@H](C)C(=O)O)cc5O4)CC3)c2)nn1 [compound 189, (2S,3R)-3-cyclopropyl-3-((R)-2-(1-(5-(2-(4-hexyl-1H-1,2,3-triazol-1-yl)ethyl)-2-(trifluoro-methoxy)benzyl)piperidin-4-yl)chroman-7-yl)-2-methylpropanoic acid]	1 to 50
CC[C@H](CC(=O)O)c1cccc(OCc2ccc(-c3cc(OC)ccc3F)c(OCc3cn(CCCCCCCCCCCCCCCCCC(=O)O)nn3)c2)c1 [Compound No. 212]	≥ 5000
COc1ccc(F)c(-c2ccc(COc3cccc([C@@H](CC(=O)O)C4CC4)c3)cc2C(C)(C)CN=[N+]=[N-])c1 [Compound No. 224]	1 to 50
COc1ccc(F)c(-c2ccc(COc3cccc([C@@H](CC(=O)O)C4CC4)c3)cc2C(C)(C)N=[N+]=[N-])c1 [Compound No. 216, (S)-3-(3-((2-(2-azidopropan-2-yl)-2′-fluoro-5′-methoxy-[1,1′-biphenyl]-4-yl)methoxy)phenyl)-3-cyclopropylpropanoic acid]	1 to 50
CCCCCCn1cc(COc2ccc(OC(F)(F)F)c(CN3CCC([C@H]4CCc5ccc([C@H](C6CC6)[C@H](C)C(=O)O)cc5O4)CC3)c2)nn1 [compound 190, (2S,3R)-3-cyclopropyl-3-((R)-2-(1-(5-((1-hexyl-1H-1,2,3-triazol-4-yl)methoxy)-2-(trifluoro-methoxy)benzyl)piperidin-4-yl)chroman-7-yl)-2-methylpropanoic acid]	50 to 250
C[C@H](C(=O)O)[C@H](c1ccc2c(c1)O[C@@H](C1CCN(Cc3cc(-c4cn(CCCCCCCCCCCCCCCCCC(=O)OCc5ccccc5)nn4)ccc3OC(F)(F)F)CC1)CC2)C1CC1 [compound 210, (2S,3R)-3-((R)-2-(1-(5-(1-(18-(benzyloxy)-18-oxooctadecyl)-1H-1,2,3-triazol-4-yl)-2-(trifluoromethoxy)benzyl)piperidin-4-yl)chroman-7-yl)-3-cyclopropyl-2-methylpropanoic acid]	50 to 250
C#Cc1ccc(OC(F)(F)F)c(CN2CCC([C@H]3CCc4ccc([C@H](C5CC5)[C@H](C)C(=O)O)cc4O3)CC2)c1 [compound 193, (2S,3R)-3-cyclopropyl-3-((R)-2-(1-(5-ethynyl-2-(trifluoromethoxy)benzyl)piperidin-4-yl)-chroman-7-yl)-2-methylpropanoic acid]	1 to 50
CCCCCCCCCCc1ccc(OC(F)(F)F)c(CN2CCC([C@H]3CCc4ccc([C@H](C5CC5)[C@H](C)C(=O)O)cc4O3)CC2)c1 [compound 205, (2S,3R)-3-cyclopropyl-3-((R)-2-(1-(5-decyl-2-(trifluoromethoxy)benzyl)piperidin-4-yl)chroman-7-yl)-2-methylpropanoic acid]	50 to 250
CCCCCCc1cn(C(C)(C)c2cc(COc3cccc([C@@H](CC(=O)O)C4CC4)c3)ccc2-c2cc(OC)ccc2F)nn1 [Compound No. 218, (S)-3-cyclopropyl-3-(3-((2′-fluoro-2-(2-(4-hexyl-1H-1,2,3-triazol-1-yl)propan-2-yl)-5′-methoxy-[1,1′-biphenyl]-4-yl)methoxy)phenyl)propanoic acid]	250 to 1000
C#CCOCC(C)(C)c1cc(COc2cccc([C@@H](CC(=O)O)C3CC3)c2)ccc1-c1cc(OC)ccc1F [Compound No. 228, (S)-3-cyclopropyl-3-(3-((2′-fluoro-5′-methoxy-2-(2-methyl-1-(prop-2-yn-1-yloxy)propan-2-yl)-[1,1′-biphenyl]-4-yl)methoxy)phenyl)propanoic acid]	50 to 250
CCCCCCc1cn(-c2ccc(OC(F)(F)F)c(CN3CCC([C@H]4CCc5ccc([C@H](C6CC6)[C@H](C)C(=O)O)cc5O4)CC3)c2)nn1 [compound 188, (2S,3R)-3-cyclopropyl-3-((R)-2-(1-(5-(4-hexyl-1H-1,2,3-triazol-1-yl)-2-(trifluoro-methoxy)benzyl)piperidin-4-yl)chroman-7-yl)-2-methylpropanoic acid]	1 to 50
CCCCCCc1cn(CCCCCOC(c2cc(COc3cccc([C@@H](CC(=O)O)C4CC4)c3)ccc2-c2cc(OC)ccc2F)C(C)(C)C)nn1 (stereo partly drawn) [Compound No. 233]	1 to 50
COC(=O)CCCCCCCCCCCCCCCCCc1cn(CCCCCOC(c2cc(COc3cccc([C@@H](CC(=O)O)C4CC4)c3)ccc2-c2cc(OC)ccc2F)C(C)(C)C)nn1 (stereo partly drawn) [Compound No. 235]	≥ 5000
COc1ccc(F)c(-c2ccc(COc3cccc([C@@H](CC(=O)O)C4CC4)c3)cc2C(C)(C)c2cn(CCCCCCCCCCCCCCCCCC(=O)O)nn2)c1 [Compound No. 221, (S)-18-[4-(1-{4-[3-(2-Carboxy-1-cyclopropyl-ethyl)-phenoxymethyl]-2′-fluoro-5′-methoxy-biphenyl-2-yl}-1-methyl-ethyl)-[1,2,3]triazol-1-yl]-octadecanoic acid]	250 to 1000
